Laboratory results reported in patent US20240382451A1, “ORGANONITRO AND SULFOXYALKYL ORGANONITRO COMPOUNDS FOR USE IN TREATING MEDICAL DISORDERS” (EpicentRx, Inc., priority 2021, published 2024).

What was measured:
3×Tg-AD mice [1] = assay: Morris water maze test in aged triple transgenic Alzheimer's disease mouse model; assay type: in vivo; conditions: 2 mg/kg intraperitoneal once weekly for 3 months
Method: (§1) The neuroprotective effects of RRx-001 administration on Alzheimer's Disease (AD), which has been linked to aberrant NLR family pyrin domain containing 3 (NLRP3) activation, were evaluated via intraperitoneal injection once weekly for 3 months on aged (18-21 months old) homozygous triple transgenic AD mouse model (3×Tg-AD, Jackson Labs). 3×Tg mice received either 2 mg/kg RRx-001 (n=3) or vehicle (n=3), and were evaluated against control non-transgenic mice (NonTg, Jackson Labs) that were untreated (n=3).
Five days after the last treatment, the mice were tested using a Morris water maze test. The next week, the mice were exposed to an elevated maze test. The latency to reach the exact hidden platform location on the Morris water maze test (FIG. 1A) and the number of crossings of the platform target quadrant (FIG. 1B) were recorded.

3×Tg-AD mice [2] = assay: Oxidative stress markers and amyloid plaque density in aged 3×Tg-AD mice; assay type: in vivo, mouse; conditions: 2 mg/kg intraperitoneal once weekly for 3 months
Method: as §1

[3] = test system: bone marrow derived macrophages (BMDMs); assay: LPS-primed bone marrow derived macrophages: cytokine expression, IL-1β release, cytosolic Ca2+; assay type: cell-based; conditions: BMDMs primed with LPS 50 ng/mL for 30 minutes, then 0.5 μM RRx-001 for 4 hours
Method: Bone marrow derived macrophages (BMDMs) were primed with LPS (50 ng/mL) for 30 minutes before being treated with RRx-001 (0.5 μM) for 4 hours. FIG. 4A depicts the expression levels of IFN-γ, IL-12, TNF-α, and IL-1β from the three groups: (i) control (not primed with LPS), (ii) LPS+vehicle (primed with LPS but not treated with RRx-001), (iii) and LPS+RRx-001 (primed with LPS and treated with RRx-001). FIG. 4B depicts IL-1β release over time from the three groups. FIG. 4C depicts cytosolic Ca^2+ levels over time for the three groups.

[4] = test system: bone marrow derived macrophages (BMDMs); assay: DSS-primed bone marrow derived macrophages: IL-1β release; assay type: cell-based; conditions: BMDMs primed with DSS, 0.5 μM or 1.0 μM RRx-001
Method: FIG. 5 depicts IL-1β release from the four groups of bone marrow derived macrophages (BMDMs): (i) control (not primed with DSS). (ii) DSS+vehicle (primed with DS but not treated with RRx-001), (iii) DSS+RRx-001 (0.5 μM; primed with DSS and treated with 0.5 μM RRx-001), and (iv) DSS+RRx-001 (1.0 μM; primed with DSS and treated with 1.0 μM RRx-001).

C57BL/6 mice = assay: Dextran sulfate sodium (DSS) induced colitis in mice; assay type: in vivo, mouse; conditions: 2% or 4% DSS for 9 days, 5 or 10 mg/kg
Text: Colitis was induced in C57BL/6 mice with 2% or 4% dextran sulfate sodium (DSS; 40 kDa) dissolved in drinking water given ad libitum for 9 days. Control mice were given filtered water. FIG. 6A depicts changes in mice body weight over a 9-day period for each of the three groups: (i) control (filtered water), (ii) 2% DSS, and (iii) 4% DSS. FIG. 6B depicts colon length of mice in each group after the 9-day period.
FIGS. 7A and 7B depict changes in mice body weight over a 9-day period for each of the six groups: (i) 2% DSS+vehicle, (ii) 2% DSS+RRx-001 (5 mg/kg), and (iii) 2% DSS+RRx-001 (10 mg/kg) in FIG. 7A; and (iv) 4% DSS+vehicle, (v) 4% DSS+RRx-001 (5 mg/kg), and (vi) 4% DSS+RRx-001 (10 mg/kg) in FIG. 7B. While the 2% or 4% DSS was given ad libitum for 9 days as described above, vehicle, 5 mg/kg RRx-001, or 10 mg/kg RRx-001 was given as intravascular injections of pre-mixed blood formulations every other day during the 9-day period. […] FIGS. 7C and 7D depict colon length of mice in each of the six groups. […] FIGS. 7E and 7F depict serum IL-1β levels in mice in each of the six groups. […] FIGS. 7G and 7H depict colon homogenate IL-1β levels in mice in each of the six groups. FIGS. 7I and 7J depict colon homogenate IL-1β levels relative to the average IL-1β level of the control (i.e., DSS+vehicle) in mice in each of the six groups.
FIGS. 8A and 8B depict the changes in mice body weight over the 9-day period for each of the six groups: (i) 2% DSS+vehicle. (ii) 2% DSS+RRx-001 (5 mg/kg), and (iii) 2% DSS+RRx-001 (10 mg/kg) in FIG. 8A; and (iv) 4% DSS+vehicle, (v) 4% DSS+RRx-001 (5 mg/kg), and (vi) 4% DSS+RRx-001 (10 mg/kg) in FIG. 8B. While the 2% or 4% DSS was given ad libitum for 9 days as described above, vehicle, 5 mg/kg RRx-001, or 10 mg/kg RRx-001 was given as intraperitoneal injections every other day during the 9-day period. […] FIGS. 8C and 8D depict colon length of mice in each of the six groups. […] FIGS. 8E and 8F depict serum IL-1β levels in mice in each of the six groups. […] FIGS. 8G and 8H depict colon homogenate IL-1β levels in mice in each of the six groups.

[5] = intraperitoneal injections every other day
[6] = intravascular injections of pre-mixed blood formulations every other day

O=C(CBr)N1CC([N+](=O)[O-])([N+](=O)[O-])C1 [RRx-001, 2-bromo-1-(3,3-dinitroazetidin-1-yl)ethanone]
spatial learning tasks (trend in latency across trials) (3×Tg-AD mice [1]): improvement
latency to locate the platform on the Morris water maze test (3×Tg-AD mice [1]; vs vehicle): significantly reduce
amyloid plaque density (3×Tg-AD mice [2]): decrease
lipid peroxidation (thiobarbituric acid-reactive substance (TBAR) levels) (3×Tg-AD mice [2]): decrease
reduced glutathione (GSH) compared to glutathione disulfide (GSSG) (3×Tg-AD mice [2]): significant increase
calcium accumulation in activated macrophages (cytosolic Ca2+ levels) [3]: prevents calcium accumulation
inflammation-driven expression of certain cytokines such as IL-1β [3]: significantly reduces
inflammatory effect of DSS (IL-1β release) [4]: significantly reduces
DSS-induced expression of colon homogenate IL-1β (C57BL/6 mice; [5]): reduces
DSS-induced expression of serum IL-1β (C57BL/6 mice; [5]): reduces
body weight loss due to DSS induced colitis (C57BL/6 mice; [5]): significantly mitigates
colon length reduction due to DSS induced colitis (C57BL/6 mice; [5]): mitigates
DSS-induced expression of colon homogenate IL-1β (C57BL/6 mice; [6]): reduces
DSS-induced expression of serum IL-1β (C57BL/6 mice; [6]): reduces
body weight loss due to DSS induced colitis (C57BL/6 mice; [6]): significantly mitigates
colon length reduction due to DSS induced colitis (C57BL/6 mice; [6]): mitigates
